{"source": "patent US20050265999A1", "about": "“Modulation of 5-HT2 receptors as a treatment for cardiovascular diseases” (Myogen, Inc., priority 2003, published 2005)", "key": {"[1]": {"test_system": "neonatal rat ventricular myocytes (NRVM)", "assay": "Cytotoxicity by adenylate kinase (AK) release from NRVM", "assay_type": "cell-based", "protocol": "(§1) Hypertrophy and toxicity assays. Primary hypertrophy endpoints for NRVM included quantitation of: ANF secretion, total cellular protein and cell volume. ANF in media supernatants was quantitated by competitive ELISA using a monoclonal anti-ANF antibody (Biodesign) and a biotinylated ANF peptide (Phoenix Peptide). Total cellular protein was quantitated by standard Coomassie dye-binding assay; cells were lysed in protein assay reagent (BioRad) and absorbance at A595 was measured after 1 hour. For cell volume measurements, NRVM cultured in 6-well dishes were harvested by treatment with trypsin (Cellgro). After recovery by centrifugation, cell pellets were washed in PBS, resuspended in 10 ml IsoFlow electrolyte solution (Beckman-Coulter) and analyzed with a Z2 Coulter Particle Counter and Size Analyzer (Beckman-Coulter). Cytotoxicity was quantitated by measuring release of adenylate kinase (AK) from cultured NRVM into culture medium (ToxiLight kit, Cambrex)."}, "[2]": {"test_system": "28 kDa calcineurin-regulated MCIP1 protein", "assay": "Western blot of MCIP1 protein in NRVM", "assay_type": "cell-based, rat", "settings": "NRVM stimulated with 18264 (1 μM), 48 h; CsA 500 nM; ketanserin, cyproheptadine 0.3 and 3 μM; 20068 1 and 3 μM", "protocol": "(§2) NRVM culture. For preparations of neonatal rat ventricular myocytes (NRVMs), hearts were removed from 10-20 newborn (1-2 days old) Sprague-Dawley rats. Isolated ventricles were pooled, minced and dispersed by three 20-min incubations at 37° C. in Ads buffer (116 mM NaCl, 20 mM HEPES, 10 mM NaH2PO4, 5.5 mM glucose, 5 mM KCl, 0.8 mM MgSO4, pH 7.4) containing collagenase Type II (65 units/ml, Worthington) and pancreatin (0.6 mg/ml, GibcoBRL). Dispersed cells were applied to a discontinuous gradient of 40.5% and 58.5% (v/v) Percoll (Amersham Biosciences), centrifuged, and myocytes collected from the interface layer. Myocyte preparations were pre-plated in Dulbecco's modified Eagle's medium (DMEM, Cellgro), supplemented with 10% (v/v) fetal bovine serum (FBS, HyClone), 4 mM L-glutamine and 1% penicillin/streptomycin for 1 hour at 37° C. to reduce fibroblast contamination, then plated at a density of 2.5×10^5 cells per well on 6-well tissue culture plates (or 10,000 cells/well on 96-well tissue culture plates) coated with a 0.2% (w/v) gelatin solution. […]\nWestern Blots. […] Protein concentrations were determined by the bicinchoninic acid method (BCA Protein Assay, Pierce) with bovine serum albumin as a standard. Equivalent quantities of protein samples ([…]) were denatured in Laemmli buffer and resolved on Tris-glycine SDS-PAGE gels (4-20% acrylamide gradient, Invitrogen). […]"}, "[3]": {"test_system": "neonatal rat ventricular myocytes (NRVM)", "assay": "ANF secretion by competitive ELISA in NRVM", "assay_type": "cell-based", "settings": "NRVM stimulated with 18264 (1 μM), 48 h; antagonist up to 3 μM", "protocol": "as §2\nas §1, with “For cell volume measurements, NRVM cultured in 6-well dishes were harvested by treatment with trypsin (Cellgro).” left out"}, "HDAC5": {"test_system": "HDAC5", "assay": "HDAC localization assay, GFP-HDAC5 in NRVM", "assay_type": "cell-based, rat", "protocol": "NRVM culture. For preparations of neonatal rat ventricular myocytes (NRVMs), hearts were removed from 10-20 newborn (1-2 days old) Sprague-Dawley rats. Isolated ventricles were pooled, minced and dispersed by three 20-min incubations at 37° C. in Ads buffer (116 mM NaCl, 20 mM HEPES, 10 mM NaH2PO4, 5.5 mM glucose, 5 mM KCl, 0.8 mM MgSO4, pH 7.4) containing collagenase Type II (65 units/ml, Worthington) and pancreatin (0.6 mg/ml, GibcoBRL). Dispersed cells were applied to a discontinuous gradient of 40.5% and 58.5% (v/v) Percoll (Amersham Biosciences), centrifuged, and myocytes collected from the interface layer. Myocyte preparations were pre-plated in Dulbecco's modified Eagle's medium (DMEM, Cellgro), supplemented with 10% (v/v) fetal bovine serum (FBS, HyClone), 4 mM L-glutamine and 1% penicillin/streptomycin for 1 hour at 37° C. to reduce fibroblast contamination, then plated at a density of 2.5×10^5 cells per well on 6-well tissue culture plates (or 10,000 cells/well on 96-well tissue culture plates) coated with a 0.2% (w/v) gelatin solution. After 24 hours in culture, myocyte preparations were transferred to serum-free maintenance medium (DMEM supplemented with 0.1% (v/v) Nutridoma (Roche), L-glutamine and penicillin/streptomycin). Where indicated, NRVM were treated with test compounds for a period of 48 h. For immunofluorescence applications, NRVM cultures were fixed, incubated with primary antibodies against alpha skeletal actin and atrial natriuretic factor, then incubated with rhodamine- or flurorescein-conjugated secondary antibodies. For HDAC localization assays, NRVM were plated to clear bottomed 96-well plates and infected overnight with recombinant adenovirus encoding HDAC5 fused to green fluorescent protein (multiplicity of infection=50). The next day, medium was replaced with serum-free maintenance medium for 4 hours, and test compounds added. After two hours, NRVM were fixed and imaged by fluorescent microscopy."}, "5-HT1": {"test_system": "5-HT1", "assay": "Radioligand receptor binding assay", "settings": "10 μM compound, n=2", "protocol": "(§3) Receptor binding assays. Receptor binding assays were performed by MDS Pharma services. Assays included: Adenosine A1 (cat# 200510), Adenosine A2A (cat# 200610), Adenosine A3 (cat# 200720), Adrenergic alpha 1 (cat# 203500), Imidazoline 12 central (cat# 241000), Imidazoline I2 peripheral (cat# 241100), Inositol triphosphate (cat# 242500), Phorbol Ester (cat# 264500), 5-HT 2B (cat# 271700), and 5-HT 4 (cat# 272000).\n(§4) • Summary of radioligand binding assays for 11 receptors. Data represent % inhibition of ligand binding in the presence of 10 μM 18264 (n=2).\n(§5) • Summary of radioligand binding assays for three receptors. Data represent % inhibition of ligand binding in the presence of 10 μM 20068 (n=2)."}, "5-HT2B": {"molecular_target": "T1, 5-HT2B (Homo sapiens, UniProt P41595)", "T1 construct": "purchased MDS Pharma services 271700", "T1 sequence (P41595 whole entry)": "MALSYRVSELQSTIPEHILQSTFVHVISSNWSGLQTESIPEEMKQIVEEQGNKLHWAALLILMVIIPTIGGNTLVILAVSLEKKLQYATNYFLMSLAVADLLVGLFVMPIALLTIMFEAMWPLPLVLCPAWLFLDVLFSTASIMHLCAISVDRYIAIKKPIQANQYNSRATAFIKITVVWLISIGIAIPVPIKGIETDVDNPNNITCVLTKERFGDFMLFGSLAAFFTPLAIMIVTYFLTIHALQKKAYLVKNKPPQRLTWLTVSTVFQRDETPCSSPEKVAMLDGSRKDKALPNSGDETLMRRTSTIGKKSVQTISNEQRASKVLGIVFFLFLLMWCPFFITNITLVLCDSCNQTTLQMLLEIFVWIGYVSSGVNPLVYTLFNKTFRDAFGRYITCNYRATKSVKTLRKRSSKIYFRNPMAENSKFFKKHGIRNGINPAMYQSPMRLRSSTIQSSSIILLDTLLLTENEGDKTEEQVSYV", "assay": "Radioligand receptor binding assay (MDS Pharma)", "settings": "10 μM compound, n=2", "protocol": "as §3, §4, §5"}, "5-HT2C": {"molecular_target": "T2, 5-HT2C (Homo sapiens, UniProt P28335)", "T2 sequence (P28335 33-458)": "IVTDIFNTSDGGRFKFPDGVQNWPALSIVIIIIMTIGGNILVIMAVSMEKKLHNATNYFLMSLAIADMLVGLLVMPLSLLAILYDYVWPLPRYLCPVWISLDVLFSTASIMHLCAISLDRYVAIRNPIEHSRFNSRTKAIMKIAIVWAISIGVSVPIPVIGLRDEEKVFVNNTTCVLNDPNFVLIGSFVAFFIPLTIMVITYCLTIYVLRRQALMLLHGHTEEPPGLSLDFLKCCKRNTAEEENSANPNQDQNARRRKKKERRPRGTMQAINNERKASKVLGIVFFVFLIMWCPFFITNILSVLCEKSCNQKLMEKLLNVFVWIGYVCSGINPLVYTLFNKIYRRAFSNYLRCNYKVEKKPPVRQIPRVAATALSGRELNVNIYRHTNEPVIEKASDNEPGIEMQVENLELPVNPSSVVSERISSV", "assay": "Radioligand receptor binding assay", "settings": "10 μM compound, n=2"}, "[4]": {"test_system": "neonatal rat ventricular myocytes (NRVM)", "assay": "Total cellular protein (Coomassie dye-binding) in NRVM", "assay_type": "cell-based", "settings": "PE-stimulated (20 μM) NRVM, 0.1-3 μM compound, 48 hours", "protocol": "NRVM culture. For preparations of neonatal rat ventricular myocytes (NRVMs), hearts were removed from 10-20 newborn (1-2 days old) Sprague-Dawley rats. Isolated ventricles were pooled, minced and dispersed by three 20-min incubations at 37° C. in Ads buffer (116 mM NaCl, 20 mM HEPES, 10 mM NaH2PO4, 5.5 mM glucose, 5 mM KCl, 0.8 mM MgSO4, pH 7.4) containing collagenase Type II (65 units/ml, Worthington) and pancreatin (0.6 mg/ml, GibcoBRL). Dispersed cells were applied to a discontinuous gradient of 40.5% and 58.5% (v/v) Percoll (Amersham Biosciences), centrifuged, and myocytes collected from the interface layer. […]\nas §1, with “For cell volume measurements, NRVM cultured in 6-well dishes were harvested by treatment with trypsin (Cellgro).” left out, “Cytotoxicity was quantitated by measuring release of adenylate kinase (AK) from cultured NRVM into culture medium (ToxiLight kit, Cambrex).” left out"}, "[5]": {"test_system": "neonatal rat ventricular myocytes (NRVM)", "assay": "Cell volume measurement (Coulter counter) of NRVM", "assay_type": "cell-based", "settings": "PE-stimulated (20 μM) NRVM, 48 hours", "protocol": "as §2\nas §1, with “For cell volume measurements, NRVM cultured in 6-well dishes were harvested by treatment with trypsin (Cellgro).” left out"}}, "data": [{"compound": "Triton X-100 [reference compound]", "values": [{"measurement": "fold change in AK release versus unstimulated control", "setting": "[1]; 0.1% Triton X-100, positive control", "result": "approximately 6.5 fold"}]}, {"compound": "O=C(c1ccc(F)cc1)C1CCN(CCn2c(=O)[nH]c3ccccc3c2=O)CC1", "note": "[ketanserin, reference compound]", "values": [{"measurement": "attenuation of 18264-dependent induction of MCIP1 protein expression", "setting": "[2]", "result": "attenuated"}, {"measurement": "block of 18264-dependent ANF secretion", "setting": "[3]", "result": "able to block"}]}, {"compound": "CNC[C@H](O)c1cccc(O)c1", "note": "[PE, phenylephrine, reference compound]", "values": [{"measurement": "nuclear export of HDAC5-GFP", "setting": "HDAC5; NRVM, two hours, 18264 1 μM, PE 20 μM", "result": "moves to cytoplasm"}]}, {"compound": "Nc1cc(-c2ccccc2)nc2ccccc12", "note": "[Compound 20068, 2-Phenyl-quinolin-4-ylamine]", "values": [{"measurement": "% Inhibition of Binding", "setting": "5-HT1", "result": 19, "unit": "%"}, {"measurement": "inhibition at 10 µM", "setting": "5-HT2B", "result": 76, "unit": "%"}, {"measurement": "inhibition at 10 µM", "setting": "5-HT2C", "result": 63, "unit": "%"}, {"measurement": "attenuation of 18264-dependent induction of MCIP1 protein expression", "setting": "[2]", "result": "blocking 18264-dependent increases in MCIP1 protein in a dose-dependent manner"}, {"measurement": "block of 18264-dependent ANF secretion", "setting": "[3]", "result": "effective at blocking"}, {"measurement": "attenuation of PE-dependent increase in total cellular protein", "setting": "[4]", "result": "attenuated"}, {"measurement": "reduction of PE-dependent increase in cardiomyocyte cell volume", "setting": "[5]; 3 μM compound", "result": 49, "unit": "%"}, {"measurement": "attenuation of PE-dependent increase in cell volume (in words)", "setting": "[5]; 0.1-3 μM compound", "result": "attenuated"}, {"measurement": "block of 18264-dependent nuclear export of HDAC5", "setting": "HDAC5; NRVM pretreated with 20068 (2 μM) one hour before 18264 (1 μM)", "result": "effective at blocking"}, {"measurement": "cytotoxicity (AK release), in words", "setting": "[1]; presence or absence of hypertrophic stimuli, up to 3 micromolar, 48 hours", "result": "no significant cytotoxicity"}]}]}
